What was measured:
[1] = test system: Acetic Acid-Induced Writhing; test: Analgesic Activity Test by Acetic Acid-Induced Writhing Method; assay type: in vivo, mouse (ddY); conditions: Mus musculus, sc; subcutaneous, 15 min. before acetic acid; writhings over 10 min.
Description: For this experiment, 5-week old ddY mice were employed. A 0.6% aqueous acetic acid solution was intraperitoneally administered to each of the mice at 0.1 ml/10 g body weight to evaluate the analgesic activity by employing the number of writhing reactions occurring over a 10 min.-period starting from 10 min. after administration as an index. Each of the subject compounds was subcutaneously administered to the back of each mouse 15 min. before the acetic acid administration.

[2] = test system: Cultured Neurocyte (cerebral cortexes), Glutamic Acid Toxicity; test: Cultured-Neurocyte Protective Effect against Glutamic Acid Toxicity (LDH leakage); assay type: cell-based, rat (Wistar, fetal); conditions: Rattus norvegicus, Cerebral cortex neuron, 10 mM glutamic acid, 24 hours at 37° C., read-out: ED50 (50% effective dose), neurocyte protective effect against glutamic acid toxicity
Text: It is known that delayed cerebral-neuronal death is induced if blood flow to the brain is transiently stopped by transient ischemia, anoxia, hypoglycemia, or trauma [T. Kirino, Brain Research, 239, 57 (1982).]. The excitatory toxicity of excitatory neurotransmitters, such as glutamic acid, which is excessively released when associated with ischemia is considered as the cause of the neurocyte damage [S. M. Rotherman and J. W. Olney, Trends in Neuroscience, 10, 299 (1987).]. A compound which protects neurocytes from the cytotoxicity of glutamic acid will be promising as a preventive and therapeutic agent for cerebral ischemic diseases, cerebral neurocyte disorder, and dementia. The following method is employed as an in vitro evaluation system of the protective effect.
Under sterilized conditions, fetuses were taken from female Wistar rats 18 to 19 day-pregnant and the brains thereof were obtained by opening their cranial portions. The brains were placed in an ice-cold L-15 medium to microscopically separate the cerebral cortexes. After being cut into small pieces, the cerebral cortexes of approximately 30 rats were suspended in a mixture of 10 ml of a 0.25% trypsin solution and 0.2 ml of a 0.01% DNase solution to be cultured at 37° C. for 30 min. Then, immediately after addition of 2 ml of serum, the resultant was centrifuged at 1,200 rpm for 2 min. to separate a sediment. To the sediment, 7 ml of a DF medium (prepared by addition of 20 nM of transferrin, 5 μg/ml of insulin, 20 nM of progesterone, 60 nM of selenite, 50 U/ml of penicillin, and 50 U/ml of streptomycin to an equivalent admixture of Dulbecco modified Eagle medium and F-12 medium) was added to prepare a cell suspension which was pipetted 20 times using a 10 ml plastic pipette followed by filtration using a nylon mesh (pore size of 43 μm) to obtain isolated cells. The resulting isolated cells were diluted to 6.0×10^5 cells/ml with the DF medium, inoculated in a polylysine-precoated culture plate having 48 wells at 500 μl per well, and cultured at 37° C. in the presence of 5% CO2 for 1 day. The medium was changed with fresh DF medium on the second day, and 10 μl of a 0.5M glutamic acid solution in distilled water is added to each of the wells (the final concentration of the glutamic acid was 10 mM), and the cells were cultured for further 24 hours at 37° C. in the presence of 5% CO2. Each of the subject compounds was dissolved in distilled water, 10% or 100% DMSO, or 10% methanol and then a 5 μl aliquot was added to each well immediately before addition of glutamic acid. The enzymatic activity of lactate dehydrogenase (LDH) which leaked into the medium from the damaged cells was measured as an index of the neurocyte damage. With respect to each of the subject compounds, LDH leakage at the respective concentrations was measured and a dose-response curve was obtained by a modified Cochran-Armitige method to obtain the 50% effective dose (ED50) of each subject compound.

[3] = test system: Rat Middle Cerebral Artery Occlusion Model; test: Infarction Suppression Effect in Rat Middle Cerebral Artery Occlusion (MCAO) Model; assay type: in vivo, rat (Wistar); conditions: i.p. 1 hour before occlusion and 1 hour after reopening, infarction volume 4 days after
Text: Remarkable cerebral edema accompanied with severe cerebrovascular lesions appears in the acute stage of human cerebral infarction. […] Corresponding to development of the lesion from the infarction area to surrounding tissues, the patient's life is seriously affected besides motor and mental functional loss in the conditions of the acute stage of cerebral infarction. A middle cerebral artery occlusion (MCAO; Middle Cerebral Artery Occlusion) model in Wistar rats using emboli with threads is well known as an experimental cerebral ischemia model in which clinical potency of a medicine can be accurately evaluated conforming to clinical conditions of human cerebral infarction [J. Koizumi, Japan Journal of Stroke, 8, 1 (1986)]. This MCAO model was employed as an in vivo evaluation system for evaluating the suppression effect of the compounds of the present invention on infarction development and was conducted according to the following method:
Under 1.0% halothane anesthesia induced by ether, the cervical region of each 10-week old rat was excised at center to expose the furcation of the right carotid while paying attention not to damage the vagus nerve. Centering around the furcation of the right carotid, the common carotid and the external carotid were separated from the surrounding tissues, each of them was ligated with 6-0 floss (Eto K.K.), and another floss was wound around the origin of the internal carotid so as to ligate and fix after inserting the embolus into the carotid. The common carotid was then incised to insert the ebolus toward the internal carotid to approximately 15 to 16 mm, and the proximal terminal of a nylon thread of the embolus was ligated and fixed to the internal carotid with the above mentioned floss. Due to the above procedure, the tip of the embolus exceeded the furcation of the middle cerebral artery, entered into the anterior cerebral artery to approximately 1 to 2 mm, and the entrance of the middle cerebral artery was occluded by the embolus body (made of a resin) for 2 hours. To reopen, the embolus with a thread was pulled away so as to restart the blood flow to the middle cerebral artery. Each of the subject compounds was intraperitoneally administered 1 hour before occlusion and 1 hour after reopening. Four days after the occlusion-reopening, each rat was systematically perfused with a saline from the heart and the brain was removed. After cooling each of the obtained brains with iced-water for 5 min., 7 coronary slices, taken at 2.0 mm intervals, of the cerebrum were prepared. Each slice was stained with TTC (triphenyltetrazolium chloride) and fixed with a neutral 5% formalin buffer solution, then the infarction area of the right cerebral hemisphere was measured by an image analyzer (Olympus) so as to evaluate the infraction expressed as a volume (mm3). The resulting infraction volume was compared with that of a control group to calculate the infarction suppression ratio.

Capsaicin Induced Cough = test: animal or person; assay type: in vivo; conditions: Rattus norvegicus, ip; read-out: ED50, antitussive effect (dose exhibiting 50% cough suppression ratio)

O=C(N[C@@H]1CC[C@H]2CN(CCc3ccccc3)CC[C@]2(c2cccc(O)c2)C1)c1ccc2ccccc2c1 (relative stereo) [Compound 24, Trans-2-(2-phenetyl)-4a-(3-hydroxyphenyl)-6β-(2-naphthoamido)decahydroisoquinoline]
ED50 [1]: 1.7 mg/kg

CN(C(=O)/C=C/c1ccoc1)[C@H]1CC[C@H]2CN(CC3CC3)CC[C@]2(c2cccc(O)c2)C1 (relative stereo) [Compound 25]
ED50 [1]: 0.83 mg/kg

CC(C)CN(C(=O)Cc1ccc(Cl)c(Cl)c1)[C@H]1CC[C@@]2(O)CN(CC3CC3)CC[C@]2(c2cccc(O)c2)C1 (relative stereo) [Compound 14, Trans-2-cyclopropylmethyl-8a-hydroxy-4a-(3-hydroxyphenyl)-6α-[N-isobutyl-(3,4-dichlorophenylacetamido)]decahydroisoquinoline]
ED50 [1]: 5.78 mg/kg
EC50 [2]: 1100 nM

O=C(N[C@@H]1CC[C@H]2CN(CC3CC3)CC[C@]2(c2cccc(O)c2)C1)c1ccc2ccccc2c1 (relative stereo) [Compound 23, Trans-2-cyclopropylmethyl-4a-(3-hydroxyphenyl)-6β-(2-naphthoamido)decahydroisoquinoline]
Infarction suppression ratio ([3]; Dose 0.3 mg/kg): 23%
EC50 [2]: 92 nM

O=C(Cc1ccc(Cl)c(Cl)c1)N[C@@H]1CC[C@H]2CN(CC3CC3)CC[C@]2(c2cccc(O)c2)C1 (relative stereo) [Compound 21, Trans-2-cyclopropylmethyl-4a-(3-hydroxyphenyl)-6β-(3,4-dichlorophenylacetamido)decahydroisoquinoline]
EC50 [2]: 12600 nM

CN(C(=O)/C=C/c1cccc(C(F)(F)F)c1)[C@H]1CC[C@@]2(O)CN(CC3CC3)CC[C@]2(c2cccc(O)c2)C1 (relative stereo) [Compound 12, Trans-2-cyclopropylmethyl-8a-hydroxy-4a-(3-hydroxyphenyl)-6α-[N-methyl-(3-trifluoromethylcinnamamido)]decahydroisoquinoline]
ED50 [1]: 1.49 mg/kg
Infarction suppression ratio ([3]; Dose 0.3 mg/kg): 64%
Infarction suppression ratio ([3]; Dose 3 mg/kg): 48%
EC50 [2]: 480 nM
ED50 (Capsaicin Induced Cough): 6.07 µg/kg

CC(C)CN(C(=O)CCCCCc1ccccc1)[C@H]1CC[C@H]2CN(CC3CC3)CC[C@]2(c2cccc(O)c2)C1 [Compound 11, (4aS, 8aR)-trans-2-cyclopropylmethyl-4a-(3-hydroxyphenyl)-6α-[N-isobutyl-(6-phenylhexanoamido)]decahydroisoquinoline]
Infarction suppression ratio ([3]; Dose 0.03 mg/kg): 5%
Infarction suppression ratio ([3]; Dose 3 mg/kg): 33%
EC50 [2]: 60900 nM

CN(C(=O)/C=C/c1cccc(C(F)(F)F)c1)[C@H]1CC[C@H]2CN(CC3CC3)CC[C@]2(c2cccc(O)c2)C1 [Compound 8, (4aS, 8aR)-trans-2-cyclopropylmethyl-4a-(3-hydroxyphenyl)-6α-[N-methyl-(3-trifluoromethylcinnamamido)]decahydroisoquinoline]
Infarction suppression ratio ([3]; Dose 0.03 mg/kg): 26%
Infarction suppression ratio ([3]; Dose 0.3 mg/kg): 43%
Infarction suppression ratio ([3]; Dose 3 mg/kg): 32%
ED50 (Capsaicin Induced Cough): 5.39 µg/kg

CC(C)CN(C(=O)CCCCCc1ccccc1)[C@H]1CC[C@@]2(O)CN(CC3CC3)CC[C@]2(c2cccc(O)c2)C1 (relative stereo) [Compound 13, Trans-2-cyclopropylmethyl-8a-hydroxy-4a-(3-hydroxyphenyl)-6α-[N-isobutyl-(6-phenylhexanoamido)]decahydroisoquinoline]
EC50 [2]: 3000 nM

CN(C(=O)/C=C/c1cccc(C(F)(F)F)c1)[C@H]1CC[C@H]2CN(CC3CC3)CC[C@]2(c2cccc(O)c2)C1 (relative stereo) [Compound 1, Trans-2-cyclopropylmethyl-4a-(3-hydroxyphenyl)-6α-[N-methyl-(3-trifluoromethylcinnamamido)]decahydroisoquinoline]
Infarction suppression ratio ([3]; Dose 0.03 mg/kg): 32%
Infarction suppression ratio ([3]; Dose 0.3 mg/kg): 13%
Infarction suppression ratio ([3]; Dose 3 mg/kg): 23%

CN(C(=O)/C=C/c1cccc(C(F)(F)F)c1)[C@@H]1CC[C@@H]2CN(CC3CC3)CC[C@@]2(c2cccc(O)c2)C1 [Compound 9, (4aR, 8aS)-trans-2-cyclopropylmethyl-4a-(3-hydroxyphenyl)-6α-[N-methyl-(3-trifluoromethylcinnamamido)]decahydroisoquinoline]
ED50 [1]: 3.11 mg/kg
Infarction suppression ratio ([3]; Dose 0.3 mg/kg): 28%
Infarction suppression ratio ([3]; Dose 3 mg/kg): 7%
EC50 [2]: 520 nM

CN(C(=O)CCCCCc1ccccc1)[C@H]1CC[C@H]2CN(CC3CC3)CC[C@]2(c2cccc(O)c2)C1 [Compound 10, (4aS, 8aR)-trans-2-cyclopropylmethyl-4a-(3-hydroxyphenyl)-6α-[N-methyl-(6-phenylhexanoamido)]decahydroisoquinoline]
ED50 [1]: 5 mg/kg
Infarction suppression ratio ([3]; Dose 0.03 mg/kg): 19%
Infarction suppression ratio ([3]; Dose 0.3 mg/kg): 21%
Infarction suppression ratio ([3]; Dose 3 mg/kg): 7%
EC50 [2]: 43 nM

Reference: patent US5776945A (priority 1995, dated 1998)
